Tests used:
Gal4-RORγ-LBD = target: T1, Gal4-RORγ-LBD (Homo sapiens, UniProt P51449); experiment: Gal4-RORγ Luciferase Reporter Assay in HEK-293T Cells; format: cell-based; conditions: HEK-293 cells
T1 construct: expressed in transfected cells; host or cells: HEK-293 cells (pcDNA3.1neo plasmid)
T1 sequence (P51449 269-508 limits assumed): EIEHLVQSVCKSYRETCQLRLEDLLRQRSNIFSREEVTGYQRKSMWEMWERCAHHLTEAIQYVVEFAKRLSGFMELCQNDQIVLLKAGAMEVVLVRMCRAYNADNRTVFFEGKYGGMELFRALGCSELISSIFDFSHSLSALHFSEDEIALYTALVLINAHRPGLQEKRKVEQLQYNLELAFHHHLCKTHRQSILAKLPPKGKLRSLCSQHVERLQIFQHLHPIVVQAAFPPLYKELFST
Method in brief: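 In transfected HEK-293 cells (Gal4-RORγ-LBD, Gal4-luciferase), test agents with 2 μM ursolic acid were incubated overnight at 37 °C before luminescent detection. Values are relative to the ursolic-acid-free, compound-free signal (100).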

RORγ-LBD = target: T2, RORγ-LBD (Homo sapiens, UniProt P51449); experiment: RORγ-Ligand Binding Domain (LBD) TR-FRET Assay; format: biochemical;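 on TR-FRET Assay Max Response: 665/615 nm ratio relative to signal without ursolic acid or compound set at 100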
T2 construct: made in house; host or cells: SF9 cells (baculovirus)
T2 sequence (P51449 269-508 limits assumed): T1 sequence (P51449 269-508 limits assumed)
Method in brief: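 Lysate from SF9 cells expressing His-RORγ-LBD is diluted to about 3 nM final in 50 mM Tris pH 7.0 assay buffer. A biotin-tagged SRC1 LXXLL peptide goes in at 200 nM final, plus ursolic acid at 2 μM final. Test compounds carry 1% DMSO final; signal read by TR-FRET.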

[1] = luciferase reporter, with 2 μM ursolic acid

SMILES	EC50 (Gal4-RORγ-LBD; [1])	Gal4-RORγ Assay Max Response (Gal4-RORγ-LBD; [1])	EC50 (RORγ-LBD)	TR-FRET Assay Max Response (RORγ-LBD)	EC50 (Gal4-RORγ-LBD; 2 μM ursolic acid)	Gal4-RORγ Assay Max Response (Gal4-RORγ-LBD; 2 μM ursolic acid)
COc1cccc(-c2cc(F)c3c(c2)N(S(=O)(=O)c2cccc(C(F)(F)F)c2)C[C@H](CCC(=O)O)O3)c1 [Compound 22D, (S)-3-(8-fluoro-6-(3-methoxyphenyl)-4-((3-(trifluoromethyl)phenyl)sulfonyl)-3,4-dihydro-2H-benzo[b][1,4]-oxazin-2-yl)propanoic acid]	< 500 nM	** (The symbol “**” indicates a value in the range of greater than 90 to 150)	< 500 nM	**** (The symbol “****” indicates a value greater than 200)	–	–
O=C(O)CC[C@H]1CN(S(=O)(=O)c2cccc(C(F)(F)F)c2)c2cc(-c3cccc(F)c3F)cc(F)c2O1 [Compound 22E, (S)-3-(6-(2,3-difluorophenyl)-8-fluoro-4-((3-(trifluoromethyl)phenyl)sulfonyl)-3,4-dihydro-2H-benzo[b][1,4]-oxazin-2-yl)propanoic acid]	< 500 nM	** (The symbol “**” indicates a value in the range of greater than 90 to 150)	< 500 nM	**** (The symbol “****” indicates a value greater than 200)	–	–
O=C(O)CC[C@H]1CN(S(=O)(=O)c2cccc(C(F)(F)F)c2)c2cc(-c3cc(F)cc(F)c3Cl)c(Cl)cc2O1 [Compound 22G, (S)-3-(7-chloro-6-(2-chloro-3,5-difluorophenyl)-4-((3-(trifluoromethyl)phenyl)sulfonyl)-3,4-dihydro-2H-benzo[b][1,4]-oxazin-2-yl)propanoic acid]	< 500 nM	** (The symbol “**” indicates a value in the range of greater than 90 to 150)	< 500 nM	*** (The symbol “***” indicates a value in the range of greater than 150 to 200)	–	–
O=C(O)CC[C@H]1CN(S(=O)(=O)c2cccc(C(F)(F)F)c2)c2cc(-c3cc(F)cc(F)c3Cl)cc(F)c2O1 [Compound 22H, (S)-3-(6-(2-chloro-3,5-difluoro-phenyl)-8-fluoro-4-((3-(trifluoro-methyl)phenyl)sulfonyl)-3,4-dihydro-2H-benzo[b][1,4]oxazin-2-yl)propanoic acid]	–	–	< 500 nM	*** (The symbol “***” indicates a value in the range of greater than 150 to 200)	< 500 nM	** (The symbol “**” indicates a value in the range of greater than 90 to 150)
O=C(O)CC[C@H]1CN(S(=O)(=O)c2cccc(C(F)(F)F)c2)c2cc(-c3cccc(Cl)c3F)cc(F)c2O1 [Compound 22I, (S)-3-(6-(3-chloro-2-fluoro-phenyl)-8-fluoro-4-((3-(trifluoromethyl)phenyl)sulfonyl)-3,4-dihydro-2H-benzo[b][1,4]-oxazin-2-yl)propanoic acid]	–	–	< 500 nM	*** (The symbol “***” indicates a value in the range of greater than 150 to 200)	< 500 nM	** (The symbol “**” indicates a value in the range of greater than 90 to 150)
O=C(O)CC[C@H]1CN(S(=O)(=O)c2cccc(C(F)(F)F)c2)c2cc(-c3cccc(Cl)c3F)c(Cl)cc2O1 [Compound 22J, (S)-3-(7-chloro-6-(3-chloro-2-fluorophenyl)-4-((3-(trifluoro-methyl)phenyl)sulfonyl)-3,4-dihydro-2H-benzo[b][1,4]oxazin-2-yl)propanoic acid]	–	–	< 500 nM	*** (The symbol “***” indicates a value in the range of greater than 150 to 200)	< 500 nM	** (The symbol “**” indicates a value in the range of greater than 90 to 150)
O=C(O)CC[C@H]1CN(S(=O)(=O)c2cccc(C(F)(F)F)c2)c2cc(-c3cc(F)cc(F)c3)cc(F)c2O1 [Compound 22K, (S)-3-(6-(3,5-difluorophenyl)-8-fluoro-4-((3-(trifluoromethyl)-phenyl)sulfonyl)-3,4-dihydro-2H-benzo[b][1,4]oxazin-2-yl)propanoic acid]	–	–	< 500 nM	*** (The symbol “***” indicates a value in the range of greater than 150 to 200)	< 500 nM	** (The symbol “**” indicates a value in the range of greater than 90 to 150)
O=C(CC[C@H]1CN(S(=O)(=O)c2cccc(C(F)(F)F)c2)c2cc(-c3cccc(Cl)c3)ccc2O1)N1CCS(=O)(=O)CC1 [Compound 23A, (S)-3-(6-(3-chlorophenyl)-4-((3-(trifluoromethyl)phenyl)sulfonyl)-3,4-dihydro-2H-benzo[b][1,4]-oxazin-2-yl)-1-(1,1-dioxidothio-morpholino)propan-1-one]	< 500 nM	** (The symbol “**” indicates a value in the range of greater than 90 to 150)	< 500 nM	**** (The symbol “****” indicates a value greater than 200)	–	–
O=C(CC[C@H]1CN(S(=O)(=O)c2cccc(C(F)(F)F)c2)c2cc(-c3cccc(Cl)c3)ccc2O1)N1CCOCC1 [Compound 23B, (S)-3-(6-(3-chlorophenyl)-4-((3-(trifluoromethyl)phenyl)sulfonyl)-3,4-dihydro-2H-benzo[b][1,4]-oxazin-2-yl)-1-morpholino-propan-1-one]	< 500 nM	** (The symbol “**” indicates a value in the range of greater than 90 to 150)	< 500 nM	**** (The symbol “****” indicates a value greater than 200)	–	–
O=C(O)C1CCN(C(=O)CC[C@H]2CN(S(=O)(=O)c3cccc(C(F)(F)F)c3)c3cc(-c4cccc(Cl)c4)ccc3O2)CC1 [Compound 23C, (S)-1-(3-(6-(3-chlorophenyl)-4-((3-(trifluoromethyl)phenyl)-sulfonyl)-3,4-dihydro-2H-benzo[b][1,4]oxazin-2-yl)propanoyl)piperidine-4-carboxylic acid]	< 500 nM	** (The symbol “**” indicates a value in the range of greater than 90 to 150)	< 500 nM	*** (The symbol “***” indicates a value in the range of greater than 150 to 200)	–	–
O=C(O)CCNC(=O)CC[C@H]1CN(S(=O)(=O)c2cccc(C(F)(F)F)c2)c2cc(-c3cccc(Cl)c3)ccc2O1 [Compound 23D, (S)-3-(3-(6-(3-chlorophenyl)-4-((3-(trifluoromethyl)phenyl)-sulfonyl)-3,4-dihydro-2H-benzo[b][1,4]oxazin-2-yl)propanamido)propanoic acid]	< 500 nM	** (The symbol “**” indicates a value in the range of greater than 90 to 150)	< 500 nM	*** (The symbol “***” indicates a value in the range of greater than 150 to 200)	–	–
O=C(O)C1CCN(C(=O)CC[C@H]2CN(S(=O)(=O)c3cccc(C(F)(F)F)c3)c3cc(-c4cccc(C(F)(F)F)n4)cc(F)c3O2)CC1 [Compound 23E, (S)-1-(3-(8-fluoro-4-((3-(trifluoromethyl)phenyl)sulfonyl)-6-(6-(trifluoromethyl)pyridin-2-yl)-3,4-dihydro-2H-benzo[b][1,4]oxazin-2-yl)propanoyl)piperidine-4-carboxylic acid]	< 500 nM	** (The symbol “**” indicates a value in the range of greater than 90 to 150)	< 500 nM	**** (The symbol “****” indicates a value greater than 200)	–	–
O=C(O)C1CCN(C(=O)CC[C@H]2CN(S(=O)(=O)c3cccc(C(F)(F)F)c3)c3cc(-c4cccc(C(F)(F)F)n4)ccc3O2)CC1 [Compound 23F, (S)-1-(3-(4-((3-(trifluoromethyl)-phenyl)sulfonyl)-6-(6-(trifluoro-methyl)pyridin-2-yl)-3,4-dihydro-2H-benzo[b][1,4]oxazin-2-yl)propanoyl)piperidine-4-carboxylic acid]	< 500 nM	** (The symbol “**” indicates a value in the range of greater than 90 to 150)	< 500 nM	**** (The symbol “****” indicates a value greater than 200)	–	–
O=C(CC[C@H]1CN(S(=O)(=O)c2cccc(C(F)(F)F)c2)c2cc(-c3cccc(C(F)(F)F)n3)ccc2O1)N1CCS(=O)(=O)CC1 [Compound 23G, (S)-1-(1,1-dioxidothio-morpholino)-3-(4-((3-(trifluoro-methyl)phenyl)sulfonyl)-6-(6-(trifluoromethyl)pyridin-2-yl)-3,4-dihydro-2H-benzo[b][1,4]-oxazin-2-yl)propan-1-one]	< 500 nM	** (The symbol “**” indicates a value in the range of greater than 90 to 150)	< 500 nM	**** (The symbol “****” indicates a value greater than 200)	–	–
COc1cccc(-c2cc(F)c3c(c2)N(S(=O)(=O)c2cccc(C(F)(F)F)c2)C[C@H](CCC(=O)N2CCC(C(=O)O)CC2)O3)c1 [Compound 23H, (S)-1-(3-(8-fluoro-6-(3-methoxyphenyl)-4-((3-(trifluoromethyl)phenyl)sulfonyl)-3,4-dihydro-2H-benzo[b][1,4]oxazin-2-yl)propanoyl)piperidine-4-carboxylic acid]	< 500 nM	** (The symbol “**” indicates a value in the range of greater than 90 to 150)	< 500 nM	**** (The symbol “****” indicates a value greater than 200)	–	–

Reference: patent US10611740B2, “Aryl dihydro-2H-benzo[b][1,4]oxazine sulfonamide and related compounds for use as agonists of RORγ and the treatment of disease” (Lycera Corporation, priority 2015, dated 2020)
